Results published in article PMC11148080, “Ru(II)-based complexes containing 2-thiouracil derivatives suppress liver cancer stem cells by targeting NF-κB and Akt/mTOR signaling” (Cell Death Discovery, 2024).
Where “and” joins values, the source holds several entries; their conditions need not be identical. Identical values can stand only once.

What was measured:
Format in all cases: cell-based, human
HepG2 cells [1] = assay: May-Grunwald-Giemsa staining morphology; conditions: 24, 48, 72 h
Experimental: Cells were grown on coverslips and stained with May-Grunwald-Giemsa. Subsequently, we employed light microscopy to examine and analyze morphological changes.

HepG2 cells [2] = assay: Trypan blue exclusion assay; conditions: HepG2, 72 h
Experimental: The number of viable cells (unstained cells) and nonviable cells (trypan blue-stained cells) was counted by the trypan blue exclusion test. Briefly, 90 μL of cell suspension was selected, and 10 μL of trypan blue (0.4%) was added. A hemocytometer was used to fill the aliquot of the homogenized cell suspension, and the cells were counted under a light microscope.

HepG2 cells [3] = assay: qPCR array gene expression; parameters: key to RQ MTOR / RQ GSTP1 / RQ TXN / RQ TXNRD1 / RQ CTSS / RQ TOP2B / RQ NFKB1 / RQ HDAC1 / RQ AURKC / RQ NTN3 / RQ HDAC6 / RQ TNKS: RQ by 2^-ΔΔCT, fold vs 0.2% DMSO calibrator (=1); key to RQ BCL2 / RQ BIRC5 / RQ ERBB2 / RQ ERBB3 / RQ IGF1R / RQ CTSD / RQ ESR1 / RQ CDC25A / RQ HIF1A / RQ CDK9 / RQ MDM2 / RQ TP53 / RQ KRAS / RQ HDAC11 / RQ HDAC8: fold change by 2^-ΔΔCT vs 0.2% DMSO calibrator (=1); conditions: 12 h; 8 µM complex 1, 6 µM complex 2
Experimental: Total RNA was extracted using the RNeasy Plus Mini Kit (Qiagen; Hilden, Germany) following the manufacturer’s instructions. A NanoDrop® 1000 spectrophotometer (Thermo Fisher Scientific, Waltham, Massachusetts, USA) was used to quantify and assess the purity of the RNA. Reverse transcription was performed using the Superscript VILOTM enzyme (Invitrogen Corporation; Waltham, MA, USA), and a TaqMan® array human cancer drug target 96-well plate, fast (ID RPRWENH, Applied BiosystemsTM, Foster City, CA, USA) was used for the gene expression study by qPCR (ABI ViiA7, Applied Biosystems instrument). The cycle conditions were 2 min at 50 °C, 10 min at 95 °C, and 40 cycles of 15 s at 95 °C and 1 min at 60 °C. All the experiments were conducted under DNase/RNase-free conditions. The 2^-ΔΔCT method was used to calculate the relative quantification (RQ) of mRNA expression using Gene Expression SuiteTM Software (Applied BiosystemsTM). Cells treated with the negative control (0.2% DMSO) were used as a calibrator, and the RQs of the reference genes GAPDH, UBC and RPLP0 were used to normalize the responses.

HepG2 cells [4] = assay: NF-κB and Akt/mTOR signaling protein levels by flow cytometry; conditions: HepG2, 24 h
Experimental: To stain intracellular proteins, the cells were harvested and resuspended in 0.5-1 mL of 4% formaldehyde for 10 min at 37 °C. The tube was then placed on ice for 1 min, after which the cells were prechilled and permeabilized using a sequence of 100% (30 min) to 90% (30 min) methanol with gentle mixing. After washing with incubation buffer (0.5% bovine serum albumin in PBS), primary antibodies were added and incubated for 1 h at room temperature. Finally, the cells were washed with PBS, and flow cytometry was used to measure cell fluorescence.
For all flow cytometry analyses, cellular fluorescence was measured using a BD LSRFortessa cytometer, BD FACSDiva software (BD Biosciences) and FlowJo software 10 (FlowJo LLC; Ashland, OR, USA). A minimum of 10,000 events were obtained per sample for intracellular staining, and a minimum of 30,000 events per sample were acquired for cell surface protein staining. Doublets were removed using FSC-A vs FCS-H and SCC-A vs SCC-H. Cellular debris was excluded from the analysis.

SMILES: F[P-](F)(F)(F)(F)F.O=c1cc[nH]c([S][Ru+])n1.c1ccc(-c2ccccn2)nc1.c1ccc(P(c2ccccc2)c2ccccc2)cc1.c1ccc(P(c2ccccc2)c2ccccc2)cc1 [Complex 1, trans-[Ru(2TU)(PPh3)2(bipy)]PF6]
- cell morphology (May-Grunwald-Giemsa) (HepG2 cells [1]): cell morphology changes that were associated with apoptosis
- reduction of cell viability (HepG2 cells [2]; 2 µM): 46.5%
- reduction of cell viability (HepG2 cells [2]; 4 µM): 72.2%
- reduction of cell viability (HepG2 cells [2]; 8 µM): 95.8%
- RQ ABCC1 (HepG2 cells [3]): 2.226
- RQ AKT1 (HepG2 cells [3]): 0.775
- RQ AKT2 (HepG2 cells [3]): 0.889
- RQ ATF2 (HepG2 cells [3]): 1.702
- RQ AURKA (HepG2 cells [3]): 0.691
- RQ AURKB (HepG2 cells [3]): 0.759
- RQ AURKC (HepG2 cells [3]): 1.565
- RQ BCL2 (HepG2 cells [3]): 1.602
- RQ BIRC5 (HepG2 cells [3]): 0.800
- RQ CDC25A (HepG2 cells [3]): 2.454
- RQ CDK1 (HepG2 cells [3]): 0.664
- RQ CDK2 (HepG2 cells [3]): 0.777
- RQ CDK4 (HepG2 cells [3]): 1.130
- RQ CDK5 (HepG2 cells [3]): 0.572
- RQ CDK7 (HepG2 cells [3]): 2.521
- RQ CDK8 (HepG2 cells [3]): 2.592
- RQ CDK9 (HepG2 cells [3]): 0.937
- RQ CTSB (HepG2 cells [3]): 0.797
- RQ CTSD (HepG2 cells [3]): 1.503
- RQ CTSL (HepG2 cells [3]): 1.271
- RQ CTSS (HepG2 cells [3]): 1.314
- RQ EGFR (HepG2 cells [3]): 1.217
- RQ ERBB2 (HepG2 cells [3]): 0.682
- RQ ERBB3 (HepG2 cells [3]): 0.915
- RQ ESR1 (HepG2 cells [3]): 0.564
- RQ ESR2 (HepG2 cells [3]): 2.165
- RQ GRB2 (HepG2 cells [3]): 1.501
- RQ GSTP1 (HepG2 cells [3]): 0.499 and 0.49
- RQ HDAC1 (HepG2 cells [3]): 0.833
- RQ HDAC2 (HepG2 cells [3]): 1.190
- RQ HDAC3 (HepG2 cells [3]): 0.989
- RQ HDAC4 (HepG2 cells [3]): 0.764
- RQ HDAC6 (HepG2 cells [3]): 0.564
- RQ HDAC7 (HepG2 cells [3]): 1.008
- RQ HDAC8 (HepG2 cells [3]): 0.970
- RQ HDAC11 (HepG2 cells [3]): 1.729
- RQ HIF1A (HepG2 cells [3]): 3.170
- RQ HRAS (HepG2 cells [3]): 0.753
- RQ HSP90AA1 (HepG2 cells [3]): 2.760
- RQ HSP90B1 (HepG2 cells [3]): 3.676
- RQ IGF1R (HepG2 cells [3]): 0.916
- RQ KRAS (HepG2 cells [3]): 1.809
- RQ MDM2 (HepG2 cells [3]): 1.685
- RQ MDM4 (HepG2 cells [3]): 2.263
- RQ MTOR (HepG2 cells [3]): 0.395 and 0.39
- RQ NFKB1 (HepG2 cells [3]): 0.451 and 0.45
- RQ NRAS (HepG2 cells [3]): 0.908
- RQ NTN3 (HepG2 cells [3]): 5.849
- RQ PARP1 (HepG2 cells [3]): 0.638
- RQ PARP4 (HepG2 cells [3]): 0.801
- RQ PDGFRB (HepG2 cells [3]): 0.964
- RQ PGR (HepG2 cells [3]): 8.929
- RQ PIK3C2A (HepG2 cells [3]): 0.855
- RQ PIK3C3 (HepG2 cells [3]): 1.001
- RQ PIK3CA (HepG2 cells [3]): 0.817
- RQ PLK1 (HepG2 cells [3]): 0.520
- RQ PLK2 (HepG2 cells [3]): 1.630
- RQ PLK3 (HepG2 cells [3]): 2.378
- RQ PLK4 (HepG2 cells [3]): 0.743
- RQ PRKCA (HepG2 cells [3]): 1.667
- RQ PRKCB (HepG2 cells [3]): 0.327
- RQ PRKCD (HepG2 cells [3]): 0.661
- RQ PRKCE (HepG2 cells [3]): 2.615
- RQ PTGS2 (HepG2 cells [3]): 7.499
- RQ RHOA (HepG2 cells [3]): 0.642
- RQ RHOB (HepG2 cells [3]): 0.437
- RQ TERT (HepG2 cells [3]): 0.604
- RQ TNKS (HepG2 cells [3]): 3.189
- RQ TOP2A (HepG2 cells [3]): 0.469
- RQ TOP2B (HepG2 cells [3]): 0.499
- RQ TP53 (HepG2 cells [3]): 1.021
- RQ TXN (HepG2 cells [3]): 0.546
- RQ TXNRD1 (HepG2 cells [3]): 1.341
- level of phospho-NF-κB p65 (S529) (HepG2 cells [4]; 8 μM complex 1): reduced
- level of phospho-S6 (S235/S236) (HepG2 cells [4]; 8 μM complex 1): reduced
- level of Akt1 (HepG2 cells [4]; 8 μM complex 1, 6 μM complex 2): reduced
- level of phospho-4EBP1 (T36/T45) (HepG2 cells [4]; 8 μM complex 1, 6 μM complex 2): not affected
- level of phospho-Akt (S473) (HepG2 cells [4]; 8 μM complex 1, 6 μM complex 2): reduced
- level of phospho-Akt (T308) (HepG2 cells [4]; 8 μM complex 1, 6 μM complex 2): not affected
- level of phospho-PI3K p85/p55 (T458/T199) (HepG2 cells [4]; 8 μM complex 1, 6 μM complex 2): not affected
- level of phospho-elF4E (S209) (HepG2 cells [4]; 8 μM complex 1, 6 μM complex 2): not affected
- level of phospho-mTOR (S2448) (HepG2 cells [4]; 8 μM complex 1, 6 μM complex 2): reduced
